Reference: patent US20100162416A1, “Multi-stage stem cell carcinogenesis” (StemLifeLine, Inc., priority 2008, published 2010)
Entries after “also recorded” stand apart in the source; their conditions may differ.

Columns and labels:
Type in all cases: cell-based, human
[1] = tested on: selected clones (05, 07, 11) and parental hESC; assay: Drug resistance profile: proliferation rate by BrdU incorporation in the presence of chemotherapeutic reagents
Method: Drug resistance profiles of selected clones were determined for the common classes of chemotherapeutic reagents. Proliferation rate of the clones and parental hESC was measured in the presence of multiple concentrations of 10 different drugs using BrdU incorporation assay. Each drug has been tested in at least three independent experiments, each condition being done in triplicate. The approximate half maximal inhibitory concentration (IC50) was determined for each of the drugs tested. IC50 represents the concentration of a drug that is required for 50% inhibition in vitro.
Response of the selected clones to the following chemotherapeutic reagents was examined. The chemotherapeutic agents were chosen for their wide-spread use and variety with respect to their modes of action: 5-fluorouracil (5-FU), doxorubicin (Doxo), irinotecan (SN-38), taxol, etoposide (VP-16), carmustine (BCNU), methotrexate (MTX), cytarabine (AraC), temozolomide (MTIC) and chlorambucil (CLB). […] Proliferation rate was measured by BrdU incorporation at the end of the drug treatment. All samples were made in triplicates in each of the three independent experiments performed.

[2] = tested on: isogenic cloned cell lines derived from one hESC line; assay: Resistance of the panel of isogenic cloned cell lines to common chemotherapeutic agents; conditions: panel of isogenic cloned cell lines with CSC phenotype
Description: Using one hESC line, a panel of isogenic cloned cell lines has already been generated and banked. […] High resolution karyotype (G-banding), proliferation rate (BrdU incorporation and doubling time), growth factor dependence and expression of CSC/SC markers such as Oct-4, Nanog, CD133, ABCG2, ABCG5 etc) have been examined and the stability of the expressed phenotypes was confirmed.

[3] = tested on: clones 07-B1 and 11-B19; assay: Drug resistance of BCNU-selected high-resistance clones; conditions: clones selected by increasing concentrations of BCNU; data not shown
Method: Two clones, 07 and 11 were exposed to increasing concentrations of BCNU. The surviving cells were cloned and a number of high-resistance clones two of which, 07-B1 and 11-B19 were isolated. Their drug resistance to BCNU and MTIC was tested.

[4] = tested on: clones 05, 07, 11, isogenic hESC control and isogenic cancer lines TMEC02, TMEC03; assay: Salinomycin dose response measured by BrdU incorporation; conditions: clones 05 and 07 compared with clone 11, isogenic hESC control

## O=c1[nH]cc(F)c(=O)[nH]1 [5-FU, 5-fluorouracil]
[1]; clone 07 compared with clone MEC-11
  resistance of clone 07: more resistant

## O=NN(CCCl)C(=O)NCCCl [BCNU, carmustine]
[2]
  resistance of transformed cell lines to the agent: increased resistance
[3]
  resistance of clones 07-B1 and 11-B19 relative to parental clones: higher resistance than the parental clones

## COc1cccc2c1C(=O)c1c(O)c3c(c(O)c1C2=O)C[C@@](O)(C(=O)CO)C[C@@H]3O[C@H]1C[C@H](N)[C@H](O)[C@H](C)O1 [doxorubicin]
[2]
  resistance of transformed cell lines to the agent: increased resistance

## CO[C@@]12[C@H](COC(N)=O)C3=C(C(=O)C(C)=C(N)C3=O)N1C[C@@H]1N[C@@H]12 [mitomycin C]
[1]; all cell lines, BrdU incorporation at end of drug treatment
  effect on proliferation (positive control): induced growth arrest in all cell lines

## CC(=O)O[C@H]1C(=O)[C@@]2(C)[C@H]([C@H](OC(=O)c3ccccc3)[C@]3(O)C[C@H](OC(=O)[C@H](O)[C@@H](NC(=O)c4ccccc4)c4ccccc4)C(C)=C1C3(C)C)[C@]1(OC(C)=O)CO[C@@H]1C[C@@H]2O [paclitaxel]
[2]
  resistance of transformed cell lines to the agent: increased resistance

## CC[C@@H](C(=O)[C@@H](C)[C@@H](O)[C@H](C)[C@@H]1O[C@@H]([C@@H](CC)C(=O)O)CC[C@@H]1C)[C@H]1O[C@]2(C=C[C@@H](O)[C@]3(CC[C@@](C)([C@H]4CC[C@](O)(CC)[C@H](C)O4)O3)O2)[C@H](C)C[C@@H]1C [salinomycin]
[4]
  effect of drug on proliferation of clones 05 and 07: most significantly affected; also recorded: significantly more affected
